Our source for the IC50 values is patent publication US20140148443A1, “Novel Imidazolines as dual inhibitors of MDM2 and MDMX” (priority 2012, published 2014).

Structures are written as SMILES. Structures can show the parent of a compound that is named as a salt.

In assay [1] the target is T1, GST-tagged MDMX (Homo sapiens, UniProt O15151).
T1 sequence (O15151 1-490): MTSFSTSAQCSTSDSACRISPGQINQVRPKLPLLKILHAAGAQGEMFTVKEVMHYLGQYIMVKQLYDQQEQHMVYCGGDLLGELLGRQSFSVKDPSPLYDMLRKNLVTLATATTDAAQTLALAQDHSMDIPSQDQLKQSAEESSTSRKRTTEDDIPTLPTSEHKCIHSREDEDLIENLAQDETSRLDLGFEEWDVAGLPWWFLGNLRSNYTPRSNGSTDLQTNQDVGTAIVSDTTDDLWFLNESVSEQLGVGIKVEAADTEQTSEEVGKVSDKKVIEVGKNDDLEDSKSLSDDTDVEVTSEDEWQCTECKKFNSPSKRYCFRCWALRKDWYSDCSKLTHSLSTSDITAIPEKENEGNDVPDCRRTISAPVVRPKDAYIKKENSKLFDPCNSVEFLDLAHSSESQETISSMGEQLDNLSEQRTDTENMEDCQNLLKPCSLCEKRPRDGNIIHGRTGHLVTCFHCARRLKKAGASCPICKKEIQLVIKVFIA
Description: HTRF binding assay of GST-tagged MDMX to p53 peptide. (In general: Time-resolved FRET reads energy transfer from a long-lived donor to a nearby acceptor.)

Assay [2] addresses recombinant GST-tagged MDM2 (Homo sapiens, UniProt Q00987). Description: HTRF assay of interaction between p53 peptide and GST-tagged MDM2. The settings on record: inhibition of GST-MDM2 (160 ng/ml) binding to biotinylated p53-peptide. On the procedure: The ability of a test compound to inhibit the interaction between p53 and MDM2 protein was measured by an HTRF (homogeneous time-resolved fluorescence) assay in which recombinant GST-tagged MDM2 binds to a peptide that resembles the MDM2-interacting region of p53 Aca-[…]-OH hereinafter p53-peptide). Binding of GST-MDM2 protein and p53-peptide (biotinylated on its N-terminal end) is registered by the FRET (fluorescence resonance energy transfer) between Europium (Eu)-labeled anti-GST antibody and streptavidin-conjugated Allophycocyanin (APC).
The test was performed in black flat-bottom 384-well plates (Costar) in a total volume of 40 uL containing: 90 nM biotinylated peptide, 160 ng/ml GST-MDM2, 20 nM streptavidin-APC (PerkinElmerWallac), 2 nM Eu-labeled anti-GST-antibody (PerkinElmerWallac), 0.02% bovine serum albumin (BSA), 1 mM dithiothreitol (DTT) and 20 mM […] (TBS) buffer as follows: add 10 uL of GST-MDM2 (640 ng/ml working solution) in reaction buffer to each well. Add 10 uL diluted compounds (1:5 dilution in reaction buffer) to each well, mix by shaking. Add 20 uL biotinylated p53 peptide (180 nM working solution) in reaction buffer to each well and mix on shaker. Incubate at 37° C. for 1 h. Add […] streptavidin-APC and Eu-anti-GST antibody mixture (6 nM Eu-anti-GST and 60 nM streptavidin-APC working solution) in TBS buffer with 0.02% BSA, shake at room temperature for 30 minutes and read using a TRF-capable plate reader at 665 and 615 nm (Victor 5, Perkin ElmerWallac). If not specified, the reagents were purchased from Sigma Chemical Co.

Sequence of recombinant GST-tagged MDM2 (Q00987 whole entry): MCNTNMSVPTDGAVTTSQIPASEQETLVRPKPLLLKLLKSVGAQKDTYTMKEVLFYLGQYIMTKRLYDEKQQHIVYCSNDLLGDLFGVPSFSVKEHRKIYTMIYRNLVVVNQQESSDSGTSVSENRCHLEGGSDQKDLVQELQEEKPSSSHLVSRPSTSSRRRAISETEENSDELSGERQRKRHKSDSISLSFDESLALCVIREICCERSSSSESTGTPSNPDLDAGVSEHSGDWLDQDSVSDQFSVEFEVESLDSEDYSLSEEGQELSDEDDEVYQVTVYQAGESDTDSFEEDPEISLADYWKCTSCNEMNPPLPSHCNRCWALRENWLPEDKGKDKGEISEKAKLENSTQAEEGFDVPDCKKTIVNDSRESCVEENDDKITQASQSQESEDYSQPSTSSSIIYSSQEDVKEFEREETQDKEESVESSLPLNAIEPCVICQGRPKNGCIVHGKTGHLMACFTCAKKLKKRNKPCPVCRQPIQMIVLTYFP

Usually IC50 stands for the concentration that gives 50% inhibition. As for `CCOc1cc(Cl)c(S(C)(=O)=O)cc1C1=N[C@@](C)(c2ccc(Cl)cc2)[C@@](C)(c2ccc(Cl)cc2)N1C(=O)N1CCC(CC(=O)N(CCOC)CCOC)CC1` [Example 24, 2-{1-[(4S,5R)-2-(4-Chloro-2-ethoxy-5-methanesulfonyl-phenyl)-4,5-bis-(4-chloro-phenyl)-4,5-dimethyl-4,5-dihydro-imidazole-1-carbonyl]-piperidin-4-yl}-N,N-bis-(2-methoxy-ethyl)-acetamide], the IC50 in assay [1] is 1520 nM; in assay [2], 7.2 nM.
For `CCOCCN(CCOCC)C(=O)CC1CCN(C(=O)N2C(c3cc(S(C)(=O)=O)c(Cl)cc3OCC)=N[C@@](C)(c3ccc(Cl)cc3)[C@@]2(C)c2ccc(Cl)cc2)CC1` [Example 25, 2-{1-[(4S,5R)-2-(4-Chloro-2-ethoxy-5-methanesulfonyl-phenyl)-4,5-bis-(4-chloro-phenyl)-4,5-dimethyl-4,5-dihydro-imidazole-1-carbonyl]-piperidin-4-yl}-N,N-bis-(2-ethoxy-ethyl)-acetamide], the IC50 in assay [1] was found to be 1510 nM; in assay [2] it was 4.4 nM.
The matching figures for `CCOc1cc(Cl)c(S(C)(=O)=O)cc1C1=N[C@@](C)(c2ccc(Cl)cc2)[C@@](C)(c2ccc(Cl)cc2)N1C(=O)N1CCN(CCS(=O)(=O)CC)CC1` [Example 26, [(4S,5R)-2-(4-Chloro-2-ethoxy-5-methanesulfonyl-phenyl)-4,5-bis-(4-chloro-phenyl)-4,5-dimethyl-4,5-dihydro-imidazol-1-yl]-[4-(2-ethanesulfonyl-ethyl)-piperazin-1-yl]-methanone]: 2010 nM and 5.2 nM.
In the same order, the values of `CCOc1cc(Cl)c(S(C)(=O)=O)cc1C1=N[C@@](C)(c2ccc(Cl)cc2)[C@@](C)(c2ccc(Cl)cc2)N1C(=O)N1CCN(CCC(N)=O)CC1` [Example 27, 3-{4-[(4S,5R)-2-(4-Chloro-2-ethoxy-5-methanesulfonyl-phenyl)-4,5-bis-(4-chloro-phenyl)-4,5-dimethyl-4,5-dihydro-imidazole-1-carbonyl]-piperazin-1-yl}-propionamide] are 2810 nM and 8.8 nM.
Regarding `CCOc1cc(Cl)c(S(C)(=O)=O)cc1C1=N[C@@](C)(c2ccc(Cl)cc2)[C@@](C)(c2ccc(Cl)cc2)N1C(=O)N1CCC2(CCN(CCS(=O)(=O)CC)CC2)CC1` [Example 28, [(4S,5R)-2-(4-Chloro-2-ethoxy-5-methanesulfonyl-phenyl)-4,5-bis-(4-chloro-phenyl)-4,5-dimethyl-4,5-dihydro-imidazol-1-yl]-[9-(2-ethanesulfonyl-ethyl)-3,9-diaza-spiro[5.5]undec-3-yl]-methanone], the values for the IC50 in assay [1] and in assay [2] were 1490 nM and 4.6 nM, respectively.
In the same order, the values of `CCOc1cc(Cl)c(S(C)(=O)=O)cc1C1=N[C@@](C)(c2ccc(Cl)cc2)[C@@](C)(c2ccc(Cl)cc2)N1C(=O)N1CCN(CC(=O)NC)CC1` [Example 29, 2-{4-[(4S,5R)-2-(4-Chloro-2-ethoxy-5-methanesulfonyl-phenyl)-4,5-bis-(4-chloro-phenyl)-4,5-dimethyl-4,5-dihydro-imidazole-1-carbonyl]-piperazin-1-yl}-N-methyl-acetamide] are 1010 nM and 5 nM.
The matching figures for `CCOc1cc(Cl)c(S(C)(=O)=O)cc1C1=N[C@@](C)(c2ccc(Cl)cc2)[C@@](C)(c2ccc(Cl)cc2)N1C(=O)N1CCC(NC(=O)N2CCCC2)CC1` [Example 30, Pyrrolidine-1-carboxylic acid {1-[(4S,5R)-2-(4-chloro-2-ethoxy-5-methanesulfonyl-phenyl)-4,5-bis-(4-chloro-phenyl)-4,5-dimethyl-4,5-dihydro-imidazole-1-carbonyl]-piperidin-4-yl}-amide]: 3350 nM and 12.7 nM.
Take `CCOc1cc(Cl)c(S(C)(=O)=O)cc1C1=N[C@@](C)(c2ccc(Cl)cc2)[C@@](C)(c2ccc(Cl)cc2)N1C(=O)N1CCC(NC(=O)NC2CCCC2)CC1` [Example 31, 1-{1-[(4S,5R)-2-(4-Chloro-2-ethoxy-5-methanesulfonyl-phenyl)-4,5-bis-(4-chloro-phenyl)-4,5-dimethyl-4,5-dihydro-imidazole-1-carbonyl]-piperidin-4-yl}-3-cyclopentyl-urea]: the concentration for half-maximal inhibition (IC50) was found to be 1590 nM in assay [1] and 5.3 nM in assay [2].
On to `CCOc1cc(Cl)c(S(C)(=O)=O)cc1C1=N[C@@](C)(c2ccc(Cl)cc2)[C@@](C)(c2ccc(Cl)cc2)N1C(=O)N1CCC(NC(N)=O)CC1` [Example 32, {1-[(4S,5R)-2-(4-Chloro-2-ethoxy-5-methanesulfonyl-phenyl)-4,5-bis-(4-chloro-phenyl)-4,5-dimethyl-4,5-dihydro-imidazole-1-carbonyl]-piperidin-4-yl}-urea], for which the IC50 was found to be 1460 nM in assay [1] and 5.2 nM in assay [2].
Consider `CCOc1cc(Cl)c(S(C)(=O)=O)cc1C1=N[C@@](C)(c2ccc(Cl)cc2)[C@@](C)(c2ccc(Cl)cc2)N1C(=O)N1CCC(NS(C)(=O)=O)CC1` [Example 33, N-{1-[(4S,5R)-2-(4-Chloro-2-ethoxy-5-methanesulfonyl-phenyl)-4,5-bis-(4-chloro-phenyl)-4,5-dimethyl-4,5-dihydro-imidazole-1-carbonyl]-piperidin-4-yl}-methanesulfonamide], for which the results for the half-maximal inhibitory concentration (IC50) in assay [1] and in assay [2] were 1120 nM and 5.3 nM, respectively.
With `CCOc1cc(Cl)c(S(C)(=O)=O)cc1C1=N[C@@](C)(c2ccc(Cl)cc2)[C@@](C)(c2ccc(Cl)cc2)N1C(=O)N1CCC(NC(=O)NC2CCS(=O)(=O)C2)CC1` (stereo partly drawn) [Example 34, 1-{1-[(4S,5R)-2-(4-Chloro-2-ethoxy-5-methanesulfonyl-phenyl)-4,5-bis-(4-chloro-phenyl)-4,5-dimethyl-4,5-dihydro-imidazole-1-carbonyl]-piperidin-4-yl}-3-(1,1-dioxo-tetrahydro-1λ6-thiophen-3-yl)-urea], the IC50 was 1350 nM in assay [1] and 6.3 nM in assay [2].
For the compound `CCOc1cc(Cl)c(S(C)(=O)=O)cc1C1=N[C@@](C)(c2ccc(Cl)cc2)[C@@](C)(c2ccc(Cl)cc2)N1C(=O)N1CCN(CC(=O)O)CC1` [Example 35, {4-[(4S,5R)-2-(4-Chloro-2-ethoxy-5-methanesulfonyl-phenyl)-4,5-bis-(4-chloro-phenyl)-4,5-dimethyl-4,5-dihydro-imidazole-1-carbonyl]-piperazin-1-yl}-acetic acid, hydrochloride], the IC50 in assay [1] worked out at 2860 nM; in assay [2], 6.7 nM.
The matching figures for `CCOc1cc(Cl)c(S(C)(=O)=O)cc1C1=N[C@@](C)(c2ccc(Cl)cc2)[C@@](C)(c2ccc(Cl)cc2)N1C(=O)N1CCC(NC(C)=O)CC1` [Example 36, N-{1-[(4S,5R)-2-(4-Chloro-2-ethoxy-5-methanesulfonyl-phenyl)-4,5-bis-(4-chloro-phenyl)-4,5-dimethyl-4,5-dihydro-imidazole-1-carbonyl]-piperidin-4-yl}-acetamide]: 1270 nM and 4.8 nM.
With `CCOc1cc(Cl)c(S(C)(=O)=O)cc1C1=N[C@@](C)(c2ccc(Cl)cc2)[C@@](C)(c2ccc(Cl)cc2)N1C(=O)N1CCC(N(C)CCCN(C)C)C1` (stereo partly drawn) [Example 37, [(4S,5R)-2-(4-Chloro-2-ethoxy-5-methanesulfonyl-phenyl)-4,5-bis-(4-chloro-phenyl)-4,5-dimethyl-4,5-dihydro-imidazol-1-yl]-{3-[(3-dimethylamino-propyl)-methyl-amino]-pyrrolidin-1-yl}-methanone], the IC50 in assay [1] turned out to be 3910 nM; in assay [2], 6.1 nM.
Turning to `CCOc1cc(Cl)c(S(C)(=O)=O)cc1C1=N[C@@](C)(c2ccc(Cl)cc2)[C@@](C)(c2ccc(Cl)cc2)N1C(=O)N1CCC(O)CC1` [Example 38, [(4S,5R)-2-(4-Chloro-2-ethoxy-5-methanesulfonyl-phenyl)-4,5-bis-(4-chloro-phenyl)-4,5-dimethyl-4,5-dihydro-imidazol-1-yl]-(4-hydroxy-piperidin-1-yl)-methanone], the IC50 is 2890 nM in assay [1] and 8.4 nM in assay [2].
The matching figures for `CCOc1cc(Cl)c(S(C)(=O)=O)cc1C1=N[C@@](C)(c2ccc(Cl)cc2)[C@@](C)(c2ccc(Cl)cc2)N1C(=O)N1CCC(CC(N)=O)CC1` [Example 39, 2-{1-[(4S,5R)-2-(4-Chloro-2-ethoxy-5-methanesulfonyl-phenyl)-4,5-bis-(4-chloro-phenyl)-4,5-dimethyl-4,5-dihydro-imidazole-1-carbonyl]-piperidin-4-yl}-acetamide]: 1030 nM and 6.1 nM.
